Test results published in the NIST ThermoML archive (doi:10.1021/je9005097).
Numbers after ± are expanded uncertainties.

Assays:
[1] = Molar enthalpy of transition or fusion; conditions: Crystal; DSC
[2] = Crystal; DTA

Oc1cc(O)c2cc1Cc1cc(c(O)cc1O)Cc1cc(c(O)cc1O)Cc1cc(c(O)cc1O)C2
Molar enthalpy of transition or fusion [1]: 9.13 ± 0.263 kcal/mol | Normal melting temperature [2]: 305.5 ± 1 °C
